The results in this text go back to patent US20220153875A1, “ANTIGEN-BINDING MOLECULE CONTAINING ANTIGEN-BINDING DOMAIN OF WHICH BINDING ACTIVITY TO ANTIGEN IS CHANGED DEPENDING ON MTA, AND LIBRARY FOR OBTAINING SAID ANTIGEN-BINDING DOMAIN” (Chugai Seiyaku Kabushiki Kaisha, priority 2019, published 2022).

Series [1] relates to HT-1376 cells. The series is described as follows: Uptake of extracellular MTA by MTAP-non-deficient cells HT-1376 (MTA in culture solution, LC-MS). Format: in vitro ADME. The settings on record: HT-1376, MTA added at 100 nM, 0, 4, 24, 48, 72 hours. On the procedure: (§1) Since the MTA concentration in the culture solution of MTAP-deficient cells increases over time, it is inferred that there is an intracellular to extracellular MTA transfer pathway. However, in MTAP-non-deficient cells. MTA concentration in the culture solution was very low (FIG. 2), despite the expected presence of ˜1 uM MTA within the cells (FIG. 1). […] Thereafter, an MTA solution was added to the culture solution so as to make the MTA concentration 100 nM, and the cells were cultured for a predetermined time (MTA: Sigma, Catalog No. D5011-100MG).

The test system of series [2] is SK-MES-1 cells. The series is described as follows: Uptake of extracellular MTA by MTAP-non-deficient cells SK-MES-1 (MTA in culture solution, LC-MS). The settings on record: SK-MES-1, MTA added at 100 nM, 0, 4, 24, 48, 72 hours. Format: in vitro ADME. On the procedure:
as §1

For the compound `CSC[C@H]1O[C@@H](n2cnc3c(N)ncnc32)[C@H](O)[C@@H]1O` (stereo in doubt) [MTA, methylthioadenosine], the “MTA concentration in the culture solution” value in series [1] and in series [2] was “decreased over time” in each case.
